Source: the supplement of paper PMC4932681

What was measured:
Experiment in all cases: viability inhibition at highest dose (% inhibition); higher = more growth inhibition
[1] = system: BT-474; settings: 72 h
Protocol: (§1)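 Percent inhibition of viability (CellTiter-Glo, 72 h) at the highest tested concentration (D5), normalised to DMSO (0%) and 100 µM benzethonium chloride (100%). Resistant lines and the 'in 1µM tamoxifen' arms were tested in 1 µM 4-OH-tamoxifen.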

[2] = system: MCF-7; settings: 72 h
Protocol: as §1

[3] = system: BT-474 Tam2; settings: 4-OH-tamoxifen in medium 1 µM; 72 h
Protocol: as §1

[4] = system: ZR-75-1 Tam1; settings: 4-OH-tamoxifen in medium 1 µM; 72 h
Protocol: as §1

[5] = system: T-47D Tam1; settings: 4-OH-tamoxifen in medium 1 µM; 72 h
Protocol: as §1

[6] = system: BT-474 Tam1; settings: 4-OH-tamoxifen in medium 1 µM; 72 h
Protocol: as §1

[7] = system: T-47D Tam2; settings: 4-OH-tamoxifen in medium 1 µM; 72 h
Protocol: as §1

[8] = system: T-47D; settings: 72 h
Protocol: as §1

[9] = system: ZR-75-1 Tam2; settings: 4-OH-tamoxifen in medium 1 µM; 72 h
Protocol: as §1

[10] = system: MCF-7 Tam1; settings: 4-OH-tamoxifen in medium 1 µM; 72 h
Protocol: as §1

[11] = system: ZR-75-1; settings: 72 h
Protocol: as §1

Nc1ccccc1NC(=O)c1ccc(CNc2nccc(-c3cccnc3)n2)cc1 [Mocetotinostat (MGCD0103)] (drug 10000 nM)
viability inhibition at highest dose ([1]; 4-OH-tamoxifen in medium 0 µM): 65.7
viability inhibition at highest dose ([1]; 4-OH-tamoxifen in medium 1 µM): 94.3
viability inhibition at highest dose ([2]; 4-OH-tamoxifen in medium 0 µM): 80.1
viability inhibition at highest dose ([2]; 4-OH-tamoxifen in medium 1 µM): 62.7
viability inhibition at highest dose [3]: 83.4
viability inhibition at highest dose [4]: 27.6
viability inhibition at highest dose [5]: 52.9
viability inhibition at highest dose [6]: 95.4
viability inhibition at highest dose [7]: 41.7
viability inhibition at highest dose ([8]; 4-OH-tamoxifen in medium 0 µM): 81.2
viability inhibition at highest dose ([8]; 4-OH-tamoxifen in medium 1 µM): 73.8
viability inhibition at highest dose [9]: 31
viability inhibition at highest dose [10]: 15.4
viability inhibition at highest dose ([11]; 4-OH-tamoxifen in medium 0 µM): 32.8
viability inhibition at highest dose ([11]; 4-OH-tamoxifen in medium 1 µM): 23.3

N#CCNC(=O)c1ccc(-c2ccnc(Nc3ccc(N4CCOCC4)cc3)n2)cc1 [Momelotinib (CYT-387)] (drug 10000 nM)
viability inhibition at highest dose ([1]; 4-OH-tamoxifen in medium 0 µM): 3.98
viability inhibition at highest dose ([1]; 4-OH-tamoxifen in medium 1 µM): -26.5
viability inhibition at highest dose ([2]; 4-OH-tamoxifen in medium 0 µM): 48.5
viability inhibition at highest dose ([2]; 4-OH-tamoxifen in medium 1 µM): 69
viability inhibition at highest dose [3]: 31.1
viability inhibition at highest dose [4]: 7.45
viability inhibition at highest dose [5]: 39.2
viability inhibition at highest dose [6]: 38.6
viability inhibition at highest dose [7]: 40
viability inhibition at highest dose ([8]; 4-OH-tamoxifen in medium 0 µM): 22.8
viability inhibition at highest dose ([8]; 4-OH-tamoxifen in medium 1 µM): 17.9
viability inhibition at highest dose [9]: 8.52
viability inhibition at highest dose [10]: 43.1
viability inhibition at highest dose ([11]; 4-OH-tamoxifen in medium 0 µM): 6.2
viability inhibition at highest dose ([11]; 4-OH-tamoxifen in medium 1 µM): 5.38

CC1(C)CNc2cc(NC(=O)c3cccnc3NCc3ccncc3)ccc21 [Motesanib  (AMG-706)] (drug 10000 nM)
viability inhibition at highest dose ([1]; 4-OH-tamoxifen in medium 0 µM): -7.25
viability inhibition at highest dose ([1]; 4-OH-tamoxifen in medium 1 µM): -16.2
viability inhibition at highest dose ([2]; 4-OH-tamoxifen in medium 0 µM): -2.53
viability inhibition at highest dose ([2]; 4-OH-tamoxifen in medium 1 µM): 1.3
viability inhibition at highest dose [3]: -2.84
viability inhibition at highest dose [4]: -1.35
viability inhibition at highest dose [5]: 9.4
viability inhibition at highest dose [6]: -2.75
viability inhibition at highest dose [7]: 12.6
viability inhibition at highest dose ([8]; 4-OH-tamoxifen in medium 0 µM): -15.1
viability inhibition at highest dose ([8]; 4-OH-tamoxifen in medium 1 µM): -10.7
viability inhibition at highest dose [9]: -1.27
viability inhibition at highest dose [10]: -1.95
viability inhibition at highest dose ([11]; 4-OH-tamoxifen in medium 0 µM): -8.12
viability inhibition at highest dose ([11]; 4-OH-tamoxifen in medium 1 µM): -2.93

CCNC(=O)c1noc(-c2cc(C(C)C)c(O)cc2O)c1-c1ccc(CN2CCOCC2)cc1 [NVP-AUY922] (drug 1000 nM)
viability inhibition at highest dose ([1]; 4-OH-tamoxifen in medium 0 µM): 48.6
viability inhibition at highest dose ([1]; 4-OH-tamoxifen in medium 1 µM): 78
viability inhibition at highest dose ([2]; 4-OH-tamoxifen in medium 0 µM): 61.6
viability inhibition at highest dose ([2]; 4-OH-tamoxifen in medium 1 µM): 46.1
viability inhibition at highest dose [3]: 65.7
viability inhibition at highest dose [4]: 28.5
viability inhibition at highest dose [5]: 49.8
viability inhibition at highest dose [6]: 75.2
viability inhibition at highest dose [7]: 55
viability inhibition at highest dose ([8]; 4-OH-tamoxifen in medium 0 µM): 68.8
viability inhibition at highest dose ([8]; 4-OH-tamoxifen in medium 1 µM): 55.5
viability inhibition at highest dose [9]: 44.4
viability inhibition at highest dose [10]: 24.1
viability inhibition at highest dose ([11]; 4-OH-tamoxifen in medium 0 µM): 34.2
viability inhibition at highest dose ([11]; 4-OH-tamoxifen in medium 1 µM): 42.6

CCN1CCN(c2ccc(Nc3cc(N(C)C(=O)Nc4c(Cl)c(OC)cc(OC)c4Cl)ncn3)cc2)CC1 [NVP-BGJ398] (drug 1000 nM)
viability inhibition at highest dose ([1]; 4-OH-tamoxifen in medium 0 µM): -15.6
viability inhibition at highest dose ([1]; 4-OH-tamoxifen in medium 1 µM): 1.03
viability inhibition at highest dose ([2]; 4-OH-tamoxifen in medium 0 µM): -15.8
viability inhibition at highest dose ([2]; 4-OH-tamoxifen in medium 1 µM): 2.98
viability inhibition at highest dose [3]: 5.89
viability inhibition at highest dose [4]: -4.94
viability inhibition at highest dose [5]: 5.28
viability inhibition at highest dose [6]: 14.4
viability inhibition at highest dose [7]: -8.43
viability inhibition at highest dose ([8]; 4-OH-tamoxifen in medium 0 µM): -9.62
viability inhibition at highest dose ([8]; 4-OH-tamoxifen in medium 1 µM): 3.56
viability inhibition at highest dose [9]: -4.28
viability inhibition at highest dose [10]: 0.341
viability inhibition at highest dose ([11]; 4-OH-tamoxifen in medium 0 µM): -1.6
viability inhibition at highest dose ([11]; 4-OH-tamoxifen in medium 1 µM): -10.3

CC1(C)CCC(c2ccc(Cl)cc2)=C(CN2CCN(c3ccc(C(=O)NS(=O)(=O)c4ccc(N[C@H](CCN5CCOCC5)CSc5ccccc5)c(S(=O)(=O)C(F)(F)F)c4)cc3)CC2)C1 [Navitoclax (ABT-263)] (drug 10000 nM)
viability inhibition at highest dose ([1]; 4-OH-tamoxifen in medium 0 µM): 6.74
viability inhibition at highest dose ([1]; 4-OH-tamoxifen in medium 1 µM): 47.7
viability inhibition at highest dose ([2]; 4-OH-tamoxifen in medium 0 µM): 27
viability inhibition at highest dose ([2]; 4-OH-tamoxifen in medium 1 µM): 14.2
viability inhibition at highest dose [3]: 32.7
viability inhibition at highest dose [4]: -1.41
viability inhibition at highest dose [5]: 38.4
viability inhibition at highest dose [6]: 33.3
viability inhibition at highest dose [7]: 23.7
viability inhibition at highest dose ([8]; 4-OH-tamoxifen in medium 0 µM): 0.832
viability inhibition at highest dose ([8]; 4-OH-tamoxifen in medium 1 µM): 3.74
viability inhibition at highest dose [9]: -6.95
viability inhibition at highest dose [10]: 5
viability inhibition at highest dose ([11]; 4-OH-tamoxifen in medium 0 µM): -9.03
viability inhibition at highest dose ([11]; 4-OH-tamoxifen in medium 1 µM): -6.23

COc1nc(N)nc2c1ncn2[C@@H]1O[C@H](CO)[C@@H](O)[C@@H]1O [Nelarabine] (drug 10000 nM)
viability inhibition at highest dose ([1]; 4-OH-tamoxifen in medium 0 µM): -2.92
viability inhibition at highest dose ([1]; 4-OH-tamoxifen in medium 1 µM): 16.3
viability inhibition at highest dose ([2]; 4-OH-tamoxifen in medium 0 µM): 13.2
viability inhibition at highest dose ([2]; 4-OH-tamoxifen in medium 1 µM): -6.84
viability inhibition at highest dose [3]: -6.72
viability inhibition at highest dose [4]: 1.44
viability inhibition at highest dose [5]: -2.1
viability inhibition at highest dose [6]: 0.136
viability inhibition at highest dose [7]: -4.97
viability inhibition at highest dose ([8]; 4-OH-tamoxifen in medium 0 µM): 1.79
viability inhibition at highest dose ([8]; 4-OH-tamoxifen in medium 1 µM): 6.8
viability inhibition at highest dose [9]: 2.19
viability inhibition at highest dose [10]: 4.67
viability inhibition at highest dose ([11]; 4-OH-tamoxifen in medium 0 µM): 11.1
viability inhibition at highest dose ([11]; 4-OH-tamoxifen in medium 1 µM): 4.17
